In one assay the test system is cpd, det2-1 mutants. The experiment in a line: Phenotype rescue of BR-biosynthesis mutants. It is filed as in vivo, Arabidopsis thaliana. Particulars: for phenotype rescue of cpd mutant: day 5 to day 11 on 1 μM BL or 30 μM ABRASIN; for rescue of dwarfed phenotype: light-grown, abrasin 50 μM or BL 1 μM. As for the experimental part: FIG. 5: Effect of brassinolide (BL) and abrasin (I5) treatment on mutants. WT or mutant plants were grown under standard conditions on agar plates. After 3 days of germination, plants were transferred to agar plates containing abrasin at a concentration of 50 μM or BL at a concentration of 1 μM.
For further phenotypical analysis, all plants were grown on vertically oriented square plates (Greiner Labortechnik, Austria) with solid medium derived from standard Murashige and Skoog medium under the same conditions. For the hypocotyl-elongation assay, plants were grown in the dark at 22° C. under the same conditions.
(§1) Col-0, the null BR signaling bri1-116 (Friedrichsen et al., 2000) and BR biosynthetic cpd (Szekeres et al., 1996) mutants were subjected to phenotype rescue analysis by treatments with BL and ABRASIN. As a negative control, dimethylsulfoxide (DMSO) was used. Plants were germinated in vitro for 5 days on ½ MS containing DMSO medium and from day 6th to day 11th they were transferred on medium supplemented with BL (10 nM, 100 nM, 1000 nM), ABRASIN (5 μM, 10 μM, 30 μM) or DMSO. Cotyledons and leaves were collected for flowcytometric analysis at the 11th day (i.e. 6 days of treatments). Samples for β-glucuronidase (GUS) assay were taken on day 6th (i.e. 1 day treatments), 8th (i.e. 3 days treatments), 10th (i.e. 5 days treatments). Rescue of soil-grown mutants at different growth stages was checked by watering bri1-116 and cpd mutants with either BL or 2 ml 300 μM ABRASIN per day.

For assay [1], the system named is DR5, CYCB1;1 and CDKB1;1 promoters fused to GUS. As to the kind of experiment: GUS assay of promoter-reporter markers in first leaf. The format is in vivo, Arabidopsis. As to conditions: for CDKB1;1-GUS expression: 30 μM ABRASIN or 1 μM BL, days 8 and 10. The method, then: FIG. 17: Investigation of differences in the rescue strategy of bri1-116 and cpd mutants treated with ABRASIN (30 μM) or BL (1 μM). The activation of markers for auxin response (DR5) and cell division (CYCB1; 1 and CDKB1; 1) was followed by localization of their promoters fused to β-glucuronidase (GUS) reporter gene. […] Samples for GUS assay were taken on day 6th (i.e. 1 day treatment), 8th (i.e. 3 days treatment), 10th (i.e. 5 days treatment). (A.) The effect of ABRASIN on the first leaf of bri1-116 and Col-0 plants—activity localization of DR5, CYCB1; 1 and CDKB1; 1 promoters fused to GUS reporter gene (B.) The effect of ABRASIN on the first leaf of cpd and Col-0 plants—activity localization of CYCB1; 1 and CDKB1; 1 promoters fused to GUS reporter gene. BL: brassinolide; BIK: abrasin.
as §1
GUS staining was carried out by the method described by Jefferson et al. (1987). Images of GUS stained plants were taken with binocular microscope (MZ16, Leica) and Nikon camera.

As to `CC(C)[C@H](C)[C@@H](O)[C@H](O)[C@@H](C)[C@H]1CC[C@H]2[C@@H]3COC(=O)[C@H]4C[C@H](O)[C@H](O)C[C@]4(C)[C@H]3CC[C@]12C` [BL, brassinolide, reference compound], the “concentration sufficient to rescue the mutant phenotypes” value in the assay on cpd, det2-1 mutants (6 days of treatments) stood at 10 nM. Besides, in the assay on cpd, det2-1 mutants, the “phenotype rescue of cpd mutant” value is “rescued the dwarf statute of the cpd to a wild-type”; the “rescue of dwarfed phenotype” value is “rescues the cpd and det2-1 mutants”. Moreover, in assay [1], the “CDKB1;1-GUS expression” value was “induced only stomata specific expression”.

Take `O=C(O)CCC(=O)Nc1ccc(Br)cn1` [abrasin, 4-[(5-bromo-2-pyridinyl)amino]-4-oxobutanoic acid]: in the assay on cpd, det2-1 mutants, the “phenotype rescue of cpd mutant” value is “rescued the phenotypes of both bri1-116 and cpd mutants to the wild-type”; the “rescue of dwarfed phenotype” value is reported as “all mutant lines, including the bri1 receptor mutants, showed an elongated phenotype”. The “CYCB1;1 expression (cell division marker)” value in assay [1] (30 μM ABRASIN) is on record as “increased the CYCB1; 1 expression”. Moreover, the “CDKB1;1-GUS expression” value in assay [1] is “activated CDKB1; 1-GUS predominately in the leaf vasculature”. In addition, the “DR5 activity in the leaves” value in assay [1] (1 day of treatment) is “did not significantly increases the DR5 activity in the leaves”. Besides, the “DR5 activity / auxin levels in the leaves” value in assay [1] (longer treatment) was “the auxin levels in both bri1-116 and wild type leaves were increased after longer treatment”.
